pEC50, pIC50: −log10 of the molar value.
Experiments:
[1] = molecular target: T1, Opioid Receptor Mu 1 (OPRM1) (Homo sapiens, UniProt P35372); assay: cell-based; settings: cAMP, read-out: RC50 (the source's name)
T1 construct: host or cells: cAMP Hunter cell lines

[2] = molecular target: T2, Dopamine Receptor D2 (DRD2S) (Homo sapiens, UniProt P14416); assay: SAFETYscan GPCR cAMP; type: cell-based
T2 construct: host or cells: cAMP Hunter cell lines

[3] = molecular target: Nuclear Hormone Glucocorticoid Receptor (GR) (Homo sapiens, UniProt P04150); assay: SAFETYscan Nuclear Hormone Receptor assay; type: cell-based; settings: read-out: RC50 (the source's name)
[4] = molecular target: T3, Norepinephrine transporter (NET) (Homo sapiens, UniProt P23975); assay: SAFETYscan Transporter assay; type: cell-based
T3 construct: host or cells: unnamed DiscoverX cell line

[5] = molecular target: T4, Dopamine transporter (DAT) (Homo sapiens, UniProt Q01959); assay: SAFETYscan Transporter assay; type: cell-based
T4 construct: host or cells: unnamed DiscoverX cell line

[6] = Single-dose acute tolerance, intravenous; type: in vivo, Male C57BL/6 mice; settings: 250 mg/kg intravenously
Procedure: This pilot study was conducted according to guidance for industry single dose acute toxicity testing for pharmaceuticals (https://www.fda.gov/regulatory-information/search-fda-guidance-documents/single-dose-acute-toxicity-testing-pharmaceuticals) to obtain acute information on the dose toxicity of HU-MCA-13 in male mice. Male C57BL/6 mice were injected intravenously with 0.2 mL of HU-MCA-13 in a dose of 250 mg/kg. […] The mortality and changes on body weight, clinical signs and gross observation, were monitored up to 30 days after treatment.
Sensory motor/neurological performance
The performance was weekly measured using several routine motor tests, but no neurological losses w ere observed (Table 1). Sensory motor tests were scored individually and according to the neurologic function severity score (NSS). The data from each individual test and the total score calculated from individual tests that make up the mNSS were measured. The following tests were […]
a. Beam balance test -mice were placed on a 2.5 cm wide beam for 60 seconds. A normal response is balance with steady posture for 60 seconds (a score of 0). Deficits are scored if the rat:
1. Grasps the side of the beam (score of 1); 2. Hugs the beam and one limb falls down from the beam (score of 2); 3. Hugs the beam and two limbs fall off the beam (score of 3); 4. Try to balance on the beam, but falls off from 60 seconds (score of 4); 5. Try to balance on the beam but falls off from 60 seconds (score of 5); 6. Falls off with no attempt to balance or hang on the beam in les s than 20 seconds (score of 6). b. Foot fault test- dysfunction of forelimb movement, while walking on elevated metal grids.
The animal was placed on horizontal grids (85 ×26 ×20) cm with a glass enclosure for observation.
With each weight bearing step, the forelimb can fall or slip between the metal support bars, an event recorded as a foot fault. The total number of forelimb steps and the total number of foot faults were counted. The percentage of forelimb foot faults to the total steps that occurred within 2 minutes represent the test results. c. Hind limb placing test- This assay monitors reposition of hind limbs placed down and away from the table edge. The ability to retrieve and place the hind limbs back onto the table was measured. Immediate and complete limb retrieval was scored 0, delayed (>2 seconds) limb retrieval and/or interspersed flailing was scored 1, and no limb retrieval was scored 2; d. Increasing platform angle to slide test- This assay measures the strength and stability of resistance to slide down an inclined platform. It deploys a clean wooden board (60 X 40 cm) positioned horizontally. Mice were placed on the board with head facing up the increasing incline.
The board then swings to increase the degree of inclination the rat experiences until slipping down the board feet first. The degree of the angle at which the rat relinquishes their grip/stance on the board (slips down) represents the test results; […]
e. Forelimb whole body suspension test- This assay measure s grip strength by duration of suspen sion by forepaws. The rat is suspended o n a metal bar (diameter of 5 mm) which it tightly holds onto by its forelimbs. The time (seconds) during which each rat could sustain its body weight while holding onto the bar is measured. The mice drop from the bar onto soft material with no harm. The test was repeated three times and a mean result per rat was used as the score. […]

[7] = 10 μM, Blocker, Transporter, read-out: MCA-13 Max. Responce

T3 sequence (P23975 whole entry): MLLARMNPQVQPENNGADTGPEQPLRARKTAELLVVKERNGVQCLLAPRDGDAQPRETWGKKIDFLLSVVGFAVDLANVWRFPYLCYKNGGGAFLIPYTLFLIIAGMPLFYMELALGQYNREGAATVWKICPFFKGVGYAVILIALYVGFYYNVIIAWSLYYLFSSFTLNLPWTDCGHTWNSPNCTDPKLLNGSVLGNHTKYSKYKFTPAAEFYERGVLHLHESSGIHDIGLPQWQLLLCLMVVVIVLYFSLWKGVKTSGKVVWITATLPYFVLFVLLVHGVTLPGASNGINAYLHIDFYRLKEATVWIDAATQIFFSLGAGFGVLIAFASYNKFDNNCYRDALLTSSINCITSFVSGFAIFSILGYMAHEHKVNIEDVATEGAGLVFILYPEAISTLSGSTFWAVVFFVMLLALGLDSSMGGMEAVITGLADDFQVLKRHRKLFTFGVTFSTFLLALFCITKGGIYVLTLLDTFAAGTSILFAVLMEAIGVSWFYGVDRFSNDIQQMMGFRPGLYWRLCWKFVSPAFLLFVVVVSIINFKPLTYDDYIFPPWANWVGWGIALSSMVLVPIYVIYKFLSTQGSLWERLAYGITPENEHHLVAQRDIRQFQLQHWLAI
T4 sequence (Q01959 whole entry): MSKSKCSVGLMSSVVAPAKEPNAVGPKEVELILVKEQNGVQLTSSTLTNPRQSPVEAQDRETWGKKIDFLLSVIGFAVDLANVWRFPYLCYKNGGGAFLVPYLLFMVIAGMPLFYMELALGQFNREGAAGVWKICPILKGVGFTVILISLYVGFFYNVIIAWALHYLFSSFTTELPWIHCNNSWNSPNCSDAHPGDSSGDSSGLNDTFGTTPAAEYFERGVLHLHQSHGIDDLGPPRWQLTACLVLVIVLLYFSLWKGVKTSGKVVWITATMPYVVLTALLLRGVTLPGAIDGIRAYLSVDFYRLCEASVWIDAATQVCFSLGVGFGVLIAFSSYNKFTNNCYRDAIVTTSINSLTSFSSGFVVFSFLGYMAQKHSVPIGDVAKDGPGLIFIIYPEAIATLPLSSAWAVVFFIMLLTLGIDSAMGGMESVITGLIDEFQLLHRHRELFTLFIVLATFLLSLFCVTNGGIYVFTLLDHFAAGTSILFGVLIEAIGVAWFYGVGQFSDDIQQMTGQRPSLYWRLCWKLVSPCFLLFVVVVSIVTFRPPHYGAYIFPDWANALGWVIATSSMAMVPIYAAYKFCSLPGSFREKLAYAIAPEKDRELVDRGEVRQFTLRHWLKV
Sequence of Nuclear Hormone Glucocorticoid Receptor (GR) (P04150 whole entry): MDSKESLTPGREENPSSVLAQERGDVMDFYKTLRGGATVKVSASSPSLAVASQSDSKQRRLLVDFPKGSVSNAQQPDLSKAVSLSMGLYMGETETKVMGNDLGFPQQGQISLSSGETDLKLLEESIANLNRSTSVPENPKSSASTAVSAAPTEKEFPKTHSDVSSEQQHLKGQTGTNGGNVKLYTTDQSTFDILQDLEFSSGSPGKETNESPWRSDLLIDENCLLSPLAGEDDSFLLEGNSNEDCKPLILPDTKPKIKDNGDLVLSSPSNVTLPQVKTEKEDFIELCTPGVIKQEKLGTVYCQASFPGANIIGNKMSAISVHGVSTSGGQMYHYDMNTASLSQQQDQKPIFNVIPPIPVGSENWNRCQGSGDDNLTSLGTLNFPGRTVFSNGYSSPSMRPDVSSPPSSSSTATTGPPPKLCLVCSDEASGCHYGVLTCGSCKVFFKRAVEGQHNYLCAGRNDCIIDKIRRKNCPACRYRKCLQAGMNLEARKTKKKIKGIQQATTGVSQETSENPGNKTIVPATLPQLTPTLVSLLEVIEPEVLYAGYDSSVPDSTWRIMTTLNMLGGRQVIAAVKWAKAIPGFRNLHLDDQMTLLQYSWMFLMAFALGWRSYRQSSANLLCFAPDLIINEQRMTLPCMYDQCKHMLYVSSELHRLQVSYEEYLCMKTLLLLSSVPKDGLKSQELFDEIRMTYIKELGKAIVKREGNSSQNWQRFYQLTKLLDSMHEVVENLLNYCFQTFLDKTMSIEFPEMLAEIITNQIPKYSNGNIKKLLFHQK
T2 sequence (P14416 1-414 isoform P14416-2): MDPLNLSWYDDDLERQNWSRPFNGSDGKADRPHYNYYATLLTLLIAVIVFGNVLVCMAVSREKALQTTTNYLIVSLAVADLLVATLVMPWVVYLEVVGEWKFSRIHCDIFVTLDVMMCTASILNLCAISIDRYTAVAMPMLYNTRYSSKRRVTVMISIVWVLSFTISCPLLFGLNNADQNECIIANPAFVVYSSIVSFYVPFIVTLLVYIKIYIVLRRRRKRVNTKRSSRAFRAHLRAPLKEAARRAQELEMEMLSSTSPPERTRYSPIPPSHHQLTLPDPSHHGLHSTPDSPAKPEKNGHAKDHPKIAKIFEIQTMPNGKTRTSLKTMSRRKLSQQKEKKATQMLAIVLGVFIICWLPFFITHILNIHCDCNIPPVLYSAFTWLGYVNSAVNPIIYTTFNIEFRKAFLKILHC
T1 sequence (P35372 whole entry): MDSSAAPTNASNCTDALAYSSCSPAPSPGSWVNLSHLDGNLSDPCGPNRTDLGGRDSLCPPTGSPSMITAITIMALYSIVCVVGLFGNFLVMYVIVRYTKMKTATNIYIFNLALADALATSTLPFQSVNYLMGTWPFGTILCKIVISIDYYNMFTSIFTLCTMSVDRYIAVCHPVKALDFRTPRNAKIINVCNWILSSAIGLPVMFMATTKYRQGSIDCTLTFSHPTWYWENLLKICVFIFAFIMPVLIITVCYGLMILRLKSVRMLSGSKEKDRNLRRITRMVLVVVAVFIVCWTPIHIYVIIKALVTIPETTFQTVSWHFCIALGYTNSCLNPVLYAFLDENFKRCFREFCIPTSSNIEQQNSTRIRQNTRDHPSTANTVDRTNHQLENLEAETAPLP

With `C=CCC1CCCC(CCC(=O)O)C1=C` (stereo not drawn) [HU-MCA-13, 3-(3-allyl-2-methylenecyclohexyl)propanoic acid] the pEC50 ([1]; Agonist) was < 5.00, the pIC50 ([1]; Antagonist) was < 5.00 and the pEC50 [2] was < 5.00. For the same compound, the pIC50 [2] was < 5.00, the pEC50 ([3]; Agonist) was < 5.00 and the pIC50 ([3]; Antagonist) was < 5.00. The pIC50 [4] was < 5.00, the inhibition at 10 µM [4, 7] was 3.53% and the pIC50 [5] was < 5.00. The inhibition at 10 µM [5, 7] was 0%, the “autonomic symptoms (salivation, urinary delivery, pupillary constriction, hair contraction) versus DMSO” value [6] was “no differences were observed” and the mortality ([6]; single dose, monitored up to 30 days) was “could not find any mortality”. For the same compound, the “sensory-motor performance, neurologic function severity score (NSS)” value ([6]; first week after injection) was “no neurological losses were observed”, the “changes on body weight versus 1% DMSO treated group” value ([6]; up to 30 days) was “No significant changes” and the “body weight at end” value ([6]; up to 30 days, started with 21 g) was 27 g.
